Results taken from patent US12594271B2, “Combination therapy for cancer” (Health Research, Inc., priority 2019, dated 2026).

Test system: MDSCs
Experiment: MDSC suppression assay: inhibition of T cell proliferation by in vitro generated MDSCs
Assay type: cell-based, mouse
Conditions: ATRA 10 μM at start of culture, side-by-side with BRQ 1 μM
Method: FIG. 2. […] (A) MDSCs were produced in vitro from mouse bone marrow cells using GM-CSF and G-CSF±BRQ (1 μM) or ATRA (10 μM) at the start of the 4-day culture. Cells tested for their ability to inhibit T cell proliferation (1:1 ratio), as in FIG. 5. Fresh BM=Uncultured bone marrow cells. (B) Similar to A, except that uridine (200 μM) was added to rescue the effect of BRQ. (C) Expression of IRF8 (upper) or SLFN4 (lower) was analyzed by qRT-PCR in Lin^− BM cells cultured as in A for 2 days. Data normalized to the vehicle.
In Vitro Development of MDSCs. Unfractionated mouse bone marrow cells were cultured in dishes with recombinant mouse G-CSF and recombinant mouse GM-CSF (40 ng/ml of each cytokine) for 96 hours to produce MDSCs, as described (Marigo et al. Immunity 32:790-802, 2010). After culture, cells were collected and analyzed by flow cytometry for the indicated cell surface markers. Uncultured or fresh bone marrow (BM) cells served as a negative control.
Cultured Cells Develop Potent Immunosuppressive Capacity. Using the methods described for FIG. 4, experiments were then performed to determine whether the cells generated from this BM culture system functionally behaved as MDSCs, based on their ability to inhibit T cell proliferation in vitro. To that end, fresh BM (i.e., no in vitro culture) or cultured BM cells (i.e., MDSCs at two different MDSC-to-T cell ratios of 1:1 or 1:2) were co-mixed in 96-well plates with CellTrace Violet (CTV)—stained syngeneic naïve splenocytes as a source of T cells and stimulated with or without soluble agonistic anti-CD3 monoclonal antibody (mAb) (1 μg/ml) for 72 hours. After co-culture, CTV dye dilution in the gated CD4^+ or CD8^+ T cell fractions within the splenocyte populations was analyzed by flow cytometry to determine the extent of proliferation based on dye dilution. In FIG. 5, top panels show CTV dye dilution, as determined by flow cytometry and depicted as a histogram; bottom panels indicate the percentage of proliferation, based on quantification of the histogram data. […]

CC1=C(/C=C/C(C)=C/C=C/C(C)=C/C(=O)O)C(C)(C)CCC1 [ATRA, all-trans retinoic acid]
ability of in vitro generated MDSCs to inhibit CD4+ or CD8+ T cell proliferation: BRQ is more effective than ATRA
